Test results published in patent publication EP1360959A1, “Use of 8-prenylflavanones for anti-angiogenesis therapy and for fibrinolytic therapy” (Schering Aktiengesellschaft, priority 2002, dated 2003).
pIC50: −log10 of the molar value. Like-named read-outs stand apart in the source and are kept apart here.

Legend:
Assay type in all cases: cell-based, Bovine
[1] = tested on: uPA mRNA; test: Northern blot analysis, uPA mRNA, BAE cells
[2] = tested on: PAI-1; test: Reverse zymography, PAI-1 activity, BAE cells
Procedure: (§1) Confluent monolayers of BME or BAE cells in 35mm gelatin-coated tissue culture dishes were washed twice with serum-free medium, and were treated with (±)-8-Prenylnaringenin in the absence or presence of bFGF or VEGF in serum-free medium containing Trasylol (200 Kallikrein Inhibitory Units/ml). 15 hours later, cell extracts were prepared and analyzed by zymography and reverse zymography as previously described (Vassalli et al., 1984, J. Exp. Med. 159: 1653-1668).
(§2) Cell extracts (CE) and culture supernatants (Sup) prepared from BAE cells incubated with (±)-8-prenylnaringenin at the indicated concentrations in the absence or presence of bFGF (3ng/ml) for 15 hours, were subjected to zymography (uPA, tPA and tPA/PAI-1 complex activities) and reverse zymography (PAI-1 activity). The second panel marked CE is a longer incubation of the gel shown in the top panel.

[3] = tested on: PAI-1; test: Reverse zymography, PAI-1 activity, BME cells; settings: 15 hours, serum-free
Procedure: as §1
as §2, with “BME” for “BAE”, “(10ng/ml)” for “(3ng/ml)”, “activity)” for “activity). The second panel marked CE is a longer incubation of the gel shown in the top panel.”

[4] = tested on: BME cells; test: Toxicity observed in BME cell cultures
[5] = tested on: PAI-1 mRNA; test: Northern blot analysis, PAI-1 mRNA, BME cells
Procedure: (§3) (±)-8-Prenylnaringenin or genistein were added to confluent BME cell monolayers to which fresh medium containing 5% DCS had been added 24 hours previously. Total cellular RNA was prepared after the indicated times using Trizol reagent (Life Technologies AG, Basel, Switzrland) according to the manufacturer's instructions. Northern blots, UV cross-linking and methylene blue staining of filters, in vitro transcription, hybridization and post-hybridization washes were as previously described (Pepper et al., 1990, J. Cell Biol. 111: 743-755). [^32P]-labelled cRNA probes were prepared from bovine urokinase-type plasminogen activator (u-PA) (Krätzschmar et al., 1993, Gene 125: 177-183), bovine u-PA receptor (u-PAr) (Krätzschmar et al., 1993, Gene 125: 177-183), human tissue-type PA (t-PA) (Fisher et al., 1985, J. Biol. Chem. 260: 11223-11230) and bovine PA inhibitor-1 (PAI-1) (Pepper et al., 1990, J. Cell Biol. 111: 743-755) cDNAs as previously described (Pepper et al., 1990, J. Cell Biol. 111: 743-755). Filters were exposed to Kodak X-OMAT XAR-5 Scientific Imaging Film (Eastman Kodak Co., Rochester, NY). Autoradiograms were scanned and quantitated using ImageQuant (Molecular Dynamics, Sunnyvale, CA).

[6] = tested on: uPAR mRNA; test: Northern blot analysis, uPAR mRNA, BME cells; settings: 10µM, after 9 hours
Procedure: (§4) (±)-8-Prenylnaringenin or genistein were added to confluent BME cell monolayers to which fresh medium containing 5% DCS had been added 24 hours previously. Total cellular RNA was prepared after the indicated times using Trizol reagent (Life Technologies AG, Basel, Switzrland) according to the manufacturer's instructions. Northern blots, UV cross-linking and methylene blue staining of filters, in vitro transcription, hybridization and post-hybridization washes were as previously described (Pepper et al., 1990, J. Cell Biol. 111: 743-755). […] Autoradiograms were scanned and quantitated using ImageQuant (Molecular Dynamics, Sunnyvale, CA).
(§5) Replicate filters containing total cellular RNA (5 µg/lane) prepared from confluent monolayers of BME cells incubated in the absence (Control) or presence of 10µM (±)-8-prenylnaringenin for the indicated times, were hybridized with ^32P-labelled cRNA probes. RNA integrity and uniformity of loading were determined by staining the filters with methylene blue after transfer and cross-linking (lower panel of the figure); 28S and 18S ribosomal RNAs are shown.

[7] = tested on: uPAR mRNA; test: Northern blot analysis, uPAR mRNA, BAE cells
Procedure: as §3

[8] = tested on: tPA mRNA; test: Northern blot analysis, tPA mRNA, BME cells; settings: 10µM, after 9 hours
Procedure: as §4, §5

[9] = tested on: uPA mRNA; test: Northern blot analysis, uPA mRNA, BME cells; settings: 10µM, after 9 hours
Procedure: as §4, §5

[10] = tested on: tPA; test: Northern blot analysis, tPA mRNA, BAE cells; settings: after 24 hours
[11] = tested on: tPA; test: Zymography of cell extracts, tPA activity, BME cells
Procedure: as §1
as §2, with “BME” for “BAE”, “(10ng/ml)” for “(3ng/ml)”, “activity)” for “activity). The second panel marked CE is a longer incubation of the gel shown in the top panel.”

[12] = tested on: BME cells; test: 5 day proliferation assay; settings: Bos taurus; for inhibition at 30 µM: maximal inhibitory effect, read-out: % inhibition of BME cell proliferation
Procedure: BME cells were seeded into gelatin-coated wells of 24 well plates at 10'000 cells per well in α-MEM supplemented with 5% DCS. 24 hours later, fresh medium was added together with 8-Prenylnaringenin at the indicated concentrations or TGF-β1 (1ng/ml), and bFGF (10ng/ml) was added to half the wells. 2 days later, medium and compounds were renewed, and after a further 3 days (i.e. 5 day assay), cells were trypsinized and counted in a FACScan Analyzer. Results are shown as % inhibition calculated from the mean of duplicate wells.
8-Prenylnaringenin reduces endothelial cell number in a 5 day proliferation assay. BME cells were seeded into 24 well plates at 10'000 cells per well in medium containing 5% DCS. 24 hours later, cells were treated with 8-Prenylnaringenin at the indicated concentrations or with TGF-β1 (1ng/ml), and bFGF (10ng/ml) was added to half the wells. Results are shown as % inhibition calculated from the mean of duplicate wells.

[13] = tested on: tPA; test: Zymography of cell extracts, tPA activity, BAE cells
Procedure: as §1, §2

[14] = tested on: BME cells; test: In vitro angiogenesis assay (invasion of three-dimensional collagen gels)
Text: bFGF and VEGF induce BME and BAE cells to invade three-dimensional collagen gels, and this is accompanied by the formation of capillary like tubular structures (Montesano et al., Proc. Natl. Acad. Sci. USA 83: 7297-7301, 1986; Pepper et al., Biochem. Biophys. Res. Comm. 189: 824-831, 1992; Pepper et al., Exp. Cell Res. 204: 356-363, 1993, Pepper et al., J. Cell Sci. 108: 73-83, 1995). In addition, bFGF and VEGF induce a synergistic invasive response in BME and BAE cells (Pepper et al., 1992, Biochem. Biophys. Res. Commun. 189: 824-831; Pepper et al 1995, J. Cell Sci. 108: 73-83).
Three-dimensional collagen gels were prepared as described (Montesano et al., Cell 42: 469-477, 1985): 8 volumes of a solution of type I collagen from rat tail tendons (approximately 1.5mg/ml) were mixed with 1 volume of 10x minimal essential medium and 1 volume of sodium bicarbonate (11.76mg/ml) on ice, dispensed into 18mm tissue culture wells, and allowed to gel at 37 °C for 10 minutes. […] Invasion was quantitated by determining the total additive length of all cellular structures which had penetrated beneath the surface monolayer either as apparently single cells or in the form of cell cords (Pepper et al., Biochem. Biophys. Res. Comm. 189: 824-831, 1992). Results are expressed as the mean total additive sprout length in µm ± s.e.m., and are from three separate experiments per condition. […]

[15] = tested on: uPA; test: Zymography of cell extracts, uPA activity, BAE cells
Procedure: as §1, §2

[16] = tested on: uPA; test: Zymography of cell extracts, uPA activity, BME cells; settings: 15 hours, serum-free
Procedure: as §1
as §2, with “BME” for “BAE”, “(10ng/ml)” for “(3ng/ml)”, “activity)” for “activity). The second panel marked CE is a longer incubation of the gel shown in the top panel.”

- pIC50 ([14]; Bos taurus, induced by bFGF (10ng/ml), VEGF (30ng/ml) or both, irrespective of the angiogenic stimulus, read-out: IC50 of inhibition of BME cell invasion): 5.00 to 5.52
Compound: CC(C)=CCc1c(O)cc(O)c2c1OC(c1ccc(O)cc1)CC2=O (racemic) [8-Prenylnaringenin, 5,7-Dihydroxy-2-(4-hydroxyphenyl)-8-(3-methylbut-2-enyl)-chroman-4-on]
- uPA mRNA levels [1]: virtually no effect
- PAI-1 [2]: decrease
- PAI-1 activity [3]: reduction
- concentration at which frank toxicity was observed ([4]; 15 hours, absence of serum): 30 µM
- concentration at which toxicity was seen ([4]; presence of 2% serum): 100 µM
- levels of PAI-1 mRNA [5]: no significant effect
- uPAR mRNA steady state level, maximal effect [6]: 6.4 fold increase
- uPAR mRNA levels [7]: virtually no effect
- tPA mRNA steady state level, maximal effect [8]: 9.6 fold increase
- uPA mRNA steady state level, maximal effect [9]: 7.5 fold increase
- tPA levels [10]: 4.6 fold increase
- tPA activity ([11]; 15 hours, serum-free): dose-dependent increase
- induction of tPA activity, combination with VEGF ([11]; with VEGF, data not shown): synergize
- induction of tPA activity, effect of bFGF co-treatment ([11]; with bFGF (10ng/ml)): potentiates
- inhibition at 30 µM ([12]; absence of bFGF): 67%
- inhibition at 30 µM ([12]; presence of bFGF (10ng/ml)): 75%
- pIC50 ([12]; 120 h, 5 day assay, 5% DCS, with or without bFGF, read-out: IC50 of inhibition of BME cell proliferation (cell number)): ~5.00
- tPA activity ([13]; 15 hours, serum-free): increased
- induction of tPA activity, effect of bFGF co-treatment ([13]; with bFGF (3ng/ml)): potentiates
- in vitro angiogenesis induced by bFGF, VEGF or a combination of the bFGF and VEGF ([14]; BME cells, collagen gel): inhibits
- uPA activity ([15]; 15 hours, serum-free): increased
- bFGF-induced uPA activity ([15]; with bFGF (3ng/ml)): reduces
- uPA activity [16]: dose-dependent increase
